This is an account of results in patent US8735438B2, “Substituted-aryl-2-phenylethyl-1H-imidazole compounds as subtype selective modulators of alpha 2B and/or alpha 2C adrenergic receptors” (Allergan, Inc., priority 2008, dated 2014).

Read-outs that look alike come from different tables or passages of the source.

Format in all cases: cell-based
Experiment [1] has as its target T1, alpha 2A receptor (Homo sapiens, UniProt P08913).
T1 construct: expressed in transfected cells; host or cells: NIH-3T3 cells
T1 sequence (P08913 1-465): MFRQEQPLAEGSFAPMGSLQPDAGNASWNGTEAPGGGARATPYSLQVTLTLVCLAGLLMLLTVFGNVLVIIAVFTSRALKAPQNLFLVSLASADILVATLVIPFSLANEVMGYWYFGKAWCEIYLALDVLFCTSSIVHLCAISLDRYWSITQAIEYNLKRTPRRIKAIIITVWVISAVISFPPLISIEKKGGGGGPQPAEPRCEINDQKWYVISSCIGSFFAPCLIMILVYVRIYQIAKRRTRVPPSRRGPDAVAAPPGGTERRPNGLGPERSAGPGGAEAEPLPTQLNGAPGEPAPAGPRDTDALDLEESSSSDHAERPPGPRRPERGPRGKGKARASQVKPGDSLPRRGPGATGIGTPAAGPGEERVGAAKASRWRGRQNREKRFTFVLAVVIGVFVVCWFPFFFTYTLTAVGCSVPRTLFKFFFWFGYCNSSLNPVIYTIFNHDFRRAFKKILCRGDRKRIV
The experiment in a line: RSAT (Receptor Selection and Amplification Technology) assay, alpha 2A. The following applies: NIH-3T3 cells cotransfected with receptor and Gq/i5; ratio of maximal effect to that of standard full agonist brimonidine (UK14304). From the text:
The compounds disclosed herein are agonists of alpha 2B/2C adrenergic receptors. […] 76, pp. 308-311 (incorporated herein by reference) and is also described below. Another reference pertinent to this assay is Conklin et al. (1993) Nature 363: 274-6, also incorporated herein by reference.
(§1) The RSAT assay measures a receptor-mediated loss of contact inhibition that results in selective proliferation of receptor-containing cells in a mixed population of confluent cells. The increase in cell number is assessed with an appropriate transfected marker gene such as β-galactosidase, the activity of which can be easily measured in a 96-well format. Receptors that activate the G protein, Gq, elicit this response. Alpha 2 receptors, which normally couple to Gi, activate the RSAT response when coexpressed with a hybrid Gq protein that has a Gi receptor recognition domain, called Gq/i5.
(§2) NIH-3T3 cells are plated at a density of 2×10^6 cells in 15 cm dishes and maintained in Dulbecco's modified Eagle's medium supplemented with 10% calf serum. One day later, cells are cotransfected by calcium phosphate precipitation with mammalian expression plasmids encoding p-SV-β-galactosidase (5-10 μg), receptor (1-2 μg) and G protein (1-2 μg). 40 μg salmon sperm DNA may also be included in the transfection mixture. Fresh media is added on the following day and 1-2 days later, cells are harvested and frozen in 50 assay aliquots. Cells are thawed and 100 μl added to 100 μl aliquots of various concentrations of drugs in triplicate in 96-well dishes. Incubations continue 72-96 hr at 37° C. After washing with phosphate-buffered saline, .E-backward.-galactosidase enzyme activity is determined by adding 200 μl of the chromogenic substrate (consisting of 3.5 mM o-nitrophenyl-beta-D-galactopyranoside and 0.5% nonidet P-40 in phosphate buffered saline), incubating overnight at 30° C. and measuring optical density at 420 nm. The absorbance is a measure of enzyme activity, which depends on cell number and reflects a receptor-mediated cell proliferation. The efficacy or intrinsic activity is calculated as a ratio of the maximal effect of the drug to the maximal effect of a standard full agonist for each receptor subtype. Brimonidine, also called UK14304, the chemical structure of which is shown below, is used as the standard agonist for the alpha 2A, alpha 2B and alpha 2C receptors.

Experiment [2] deals with T2, alpha 2B receptor (Homo sapiens, UniProt P18089).
T2 construct: expressed in transfected cells; host or cells: NIH-3T3 cells
T2 sequence (P18089 1-450): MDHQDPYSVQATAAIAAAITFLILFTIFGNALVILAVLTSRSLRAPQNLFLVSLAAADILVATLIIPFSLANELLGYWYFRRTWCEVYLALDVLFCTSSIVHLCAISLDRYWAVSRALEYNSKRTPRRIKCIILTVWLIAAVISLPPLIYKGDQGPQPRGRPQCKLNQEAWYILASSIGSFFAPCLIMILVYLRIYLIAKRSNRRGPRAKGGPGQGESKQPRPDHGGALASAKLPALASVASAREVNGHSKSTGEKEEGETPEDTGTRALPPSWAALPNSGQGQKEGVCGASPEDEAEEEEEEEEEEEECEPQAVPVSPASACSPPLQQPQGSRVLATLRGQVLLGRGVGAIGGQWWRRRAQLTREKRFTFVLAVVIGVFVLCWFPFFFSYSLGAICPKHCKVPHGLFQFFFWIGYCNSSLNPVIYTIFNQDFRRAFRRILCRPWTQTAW
The experiment in a line: RSAT (Receptor Selection and Amplification Technology) assay, alpha 2B. The following applies: for Alpha 2B intrinsic activity (efficacy), value in parentheses: ratio of maximal effect to that of standard full agonist brimonidine (UK14304). As for the experimental part: as §1, §2

The target of experiment [3] is T3, alpha 2C receptor (Homo sapiens, UniProt P18825).
T3 construct: expressed in transfected cells; host or cells: NIH-3T3 cells
T3 sequence (P18825 1-462): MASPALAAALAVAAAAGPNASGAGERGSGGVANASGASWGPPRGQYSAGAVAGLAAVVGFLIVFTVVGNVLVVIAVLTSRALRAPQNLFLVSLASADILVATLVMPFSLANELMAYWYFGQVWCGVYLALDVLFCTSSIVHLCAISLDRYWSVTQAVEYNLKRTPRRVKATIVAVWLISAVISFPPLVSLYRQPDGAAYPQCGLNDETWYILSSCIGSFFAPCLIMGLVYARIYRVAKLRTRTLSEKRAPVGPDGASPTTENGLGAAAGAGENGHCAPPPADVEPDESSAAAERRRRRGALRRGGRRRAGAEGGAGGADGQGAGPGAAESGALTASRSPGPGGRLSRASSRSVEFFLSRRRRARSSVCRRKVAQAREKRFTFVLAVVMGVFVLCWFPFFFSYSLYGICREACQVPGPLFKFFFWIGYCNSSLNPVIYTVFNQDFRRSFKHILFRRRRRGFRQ
The experiment can be described thus: RSAT (Receptor Selection and Amplification Technology) assay, alpha 2C. The note with it: for Alpha 2C intrinsic activity (efficacy), value in parentheses: ratio of maximal effect to that of standard full agonist brimonidine (UK14304). The method, then:
as §1, §2

The mark [4] stands for this setting: NIH-3T3 cells cotransfected with receptor and Gq/i5.
[5] abbreviates: NIH-3T3 cells cotransfected with receptor and Gq/i5, read-out: Alpha 2B potency nM (EC50).

Consider `Cc1cccc(C(Cc2ccccc2)c2c[nH]cn2)c1C` (stereo not shown), for which the “Alpha 2A intrinsic activity (efficacy), value in parentheses” value (“Alpha 2A intrinsic activity (efficacy)” for short) in experiment [1] is on record as “No Data (.28)”. In addition, the EC50 – broadly, the concentration giving half of the maximal effect – came out at 2.09 nM in experiment [2] and 26 nM in experiment [3]. For the same molecule, in experiment [2] (setting [4]), the “Alpha 2B intrinsic activity (efficacy), value in parentheses” value (shortened to “Alpha 2B intrinsic activity (efficacy)”) stood at 1.01. For the same molecule, the “Alpha 2C intrinsic activity (efficacy), value in parentheses” value (“Alpha 2C intrinsic activity (efficacy)” below) in experiment [3] (setting [4]) was “.36”.
In the case of `Clc1cccc(C(Cc2ccccc2)c2c[nH]cn2)c1Cl` (stereo not shown), the “Alpha 2A intrinsic activity (efficacy)” value in experiment [1] is “No Data (.21)”. Besides, the “Alpha 2B intrinsic activity (efficacy)” value in experiment [2] (setting [4]) is “.97”. The EC50 was found to be 8.4 nM in experiment [2] (setting [5]); 41 nM in experiment [3] (NIH-3T3 cells cotransfected with receptor and Gq/i5, read-out: Alpha 2C potency nM (EC50)). In addition, the “Alpha 2C intrinsic activity (efficacy)” value in experiment [3] (setting [4]) is “.41”.
With `Fc1cccc(C(Cc2ccccc2)c2c[nH]cn2)c1F` (stereo not shown), in experiment [1], the “Alpha 2A intrinsic activity (efficacy)” value is reported as “No Data (.04)”. Moreover, the “Alpha 2B intrinsic activity (efficacy)” value in experiment [2] (setting [4]) was “.53”. Moreover, the EC50 in experiment [2] (setting [5]) came out at 4.4 nM. Further, the “Alpha 2C intrinsic activity (efficacy)” value in experiment [3] (setting [4]) is given as “No Data (.17)”.
On the same counts, the results for `Cc1ccccc1C(Cc1ccccc1)c1c[nH]cn1` (stereo not shown) are “No Data (.10)”, “.69”, 101 nM and “No Data (.21)”.
For `Fc1ccccc1C(Cc1ccccc1)c1c[nH]cn1` (stereo not shown), in experiment [1], the “Alpha 2A intrinsic activity (efficacy)” value is “No Data (.04)”. The EC50 in experiment [2] worked out at 3.5 nM. For the same molecule, the “Alpha 2B intrinsic activity (efficacy)” value in experiment [2] (setting [4]) is “.43”. The “Alpha 2C intrinsic activity (efficacy)” value in experiment [3] (setting [4]) is reported as “No Data (.18)”.
As for `c1ccc(CC(c2ccccc2)c2c[nH]cn2)cc1` (stereo not shown), the “Alpha 2A intrinsic activity (efficacy)” value in experiment [1] is “No Data (.05)”. In experiment [2], the EC50 worked out at 2.8 nM. Further, the “Alpha 2B intrinsic activity (efficacy)” value in experiment [2] (setting [4]) is given as “.69”. Further, in experiment [3] (setting [4]), the “Alpha 2C intrinsic activity (efficacy)” value is listed as “No Data (.10)”.
On to `c1ccc(CC(c2ccncc2)c2c[nH]cn2)cc1` (stereo not shown), for which, in experiment [1], the “Alpha 2A intrinsic activity (efficacy)” value was “No Data (.02)”. In addition, the EC50 in experiment [2] was determined as 66 nM. In addition, the “Alpha 2B intrinsic activity (efficacy)” value in experiment [2] (setting [4]) is recorded as “.74”. Also, in experiment [3] (setting [4]), the “Alpha 2C intrinsic activity (efficacy)” value is reported as “No Data (.09)”.
As to `Clc1cccc(/C(=C/c2ccccc2)c2c[nH]cn2)c1`, the “Alpha 2A intrinsic activity (efficacy)” value in experiment [1] is on record as “No Data (.09)”. A half-maximal effect in experiment [2] (EC50) was put at 7.8 nM. Besides, the “Alpha 2B intrinsic activity (efficacy)” value in experiment [2] (setting [4]) is given as “.80”. Besides, the “Alpha 2C intrinsic activity (efficacy)” value in experiment [3] (setting [4]) was “No Data (.19)”.
